From doi:10.1101/2021.07.20.453049v1, “Integration of the cyanophage-encoded phosphate binding protein into the cyanobacterial phosphate uptake system” (biorxiv, 2021) come the findings set out here.

For assay [1], the target named is T1, host PstS (Prochlorococcus NATL2A PstS) (Prochlorococcus marinus, UniProt Q46KP5).
T1 construct: gene PMN2A_0441
As to conditions: 20 mM Tris-HCl, 200 mM NaCl, pH 7.5, room temperature, 24 h; trace 32P tracer with cold NaH2PO4.

For assay [2], the target named is phage PstS (cyanophage P-SSM2 PstS) (Prochlorococcus phage P-SSM2, UniProt Q58MA7). The assay can be described thus: biochemical.
Sequence of phage PstS (cyanophage P-SSM2 PstS) (Q58MA7 21-321): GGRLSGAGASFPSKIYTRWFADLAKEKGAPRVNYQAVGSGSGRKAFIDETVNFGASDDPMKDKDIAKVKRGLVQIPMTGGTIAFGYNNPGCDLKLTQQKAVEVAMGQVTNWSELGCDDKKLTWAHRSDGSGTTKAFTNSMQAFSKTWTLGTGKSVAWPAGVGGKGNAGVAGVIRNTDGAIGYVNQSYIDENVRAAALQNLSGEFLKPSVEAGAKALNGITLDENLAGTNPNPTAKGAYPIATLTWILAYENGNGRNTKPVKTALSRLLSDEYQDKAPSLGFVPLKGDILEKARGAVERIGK
The target of assay [3] is T2, Syn19 PstS (group II cyanophage PstS) (Synechococcus phage Syn19, UniProt E3SQC4).
T2 construct: recombinant, E. coli BL21(DE3), pET-22b, C-terminal His6 tag
T2 sequence (E3SQC4 19-326): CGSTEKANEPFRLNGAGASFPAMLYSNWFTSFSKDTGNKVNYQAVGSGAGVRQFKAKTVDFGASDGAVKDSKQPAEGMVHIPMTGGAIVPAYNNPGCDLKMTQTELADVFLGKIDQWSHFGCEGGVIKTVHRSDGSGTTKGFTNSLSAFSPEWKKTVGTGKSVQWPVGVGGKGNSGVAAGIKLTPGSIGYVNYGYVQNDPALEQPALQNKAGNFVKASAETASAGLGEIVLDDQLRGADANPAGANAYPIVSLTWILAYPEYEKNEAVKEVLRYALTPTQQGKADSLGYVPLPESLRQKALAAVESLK
Type of assay: binding. As to conditions: crystallised with 5 mM sodium phosphate, pH 7.5; 18% PEG 3350, 0.2 M sodium formate.

Molecules are shown by their SMILES.

T1 sequence (Q46KP5 25-323): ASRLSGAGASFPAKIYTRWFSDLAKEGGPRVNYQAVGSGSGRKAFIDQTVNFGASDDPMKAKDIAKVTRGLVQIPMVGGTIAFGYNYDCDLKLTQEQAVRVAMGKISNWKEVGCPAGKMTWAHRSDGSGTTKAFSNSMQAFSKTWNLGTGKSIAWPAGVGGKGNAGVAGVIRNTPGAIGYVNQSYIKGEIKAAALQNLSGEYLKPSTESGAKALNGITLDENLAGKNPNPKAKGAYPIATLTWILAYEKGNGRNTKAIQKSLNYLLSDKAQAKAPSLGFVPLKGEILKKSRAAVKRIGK

For the compound `O=P(O)(O)O` [phosphate], the dissociation constant Kd – broadly, the concentration at which binding is half-saturated – in assay [1] came to 820 ± 440 nM; in assay [2], 1390 ± 220 nM. Moreover, in assay [3], the “X-ray crystal structure, 1.70 Å” value was “The PstS structure of cyanophage Syn19 in complex with PO4”.
